In US20110281922A1, “AMIDE THIAZOLE DERIVATIVE, PREPARATION METHOD AND USES THEREOF” (TIANJIN INSTITUTE OF PHARMACEUTICAL RESEARCH, priority 2008, published 2011):
Counter-ions that a name gives are not always drawn.

Test system: ICR mice
Assay: Glucose tolerance in fasted ICR mice: serum glucose by glucose-oxidase method after intraperitoneal glucose load
Format: in vivo
Details: dose 100 mg/kg; for 0.5 h blood sugar: serum glucose 0.5 h after modeling (2 g/kg glucose i.p. 2 h after administration; 1.5 h for diamicron); for 1 h blood sugar: serum glucose 1 h after modeling (2 g/kg glucose i.p. 2 h after administration; 1.5 h for diamicron); for 2 h blood sugar: serum glucose 2 h after modeling (2 g/kg glucose i.p. 2 h after administration; 1.5 h for diamicron); for 3 h blood sugar: serum glucose 3 h after modeling (2 g/kg glucose i.p. 2 h after administration; 1.5 h for diamicron); for 4 h blood sugar: serum glucose 4 h after modeling (2 g/kg glucose i.p. 2 h after administration; 1.5 h for diamicron)
Description: 1% sodium carboxymethyl cellulose is used to formulate the sample to a suspension with the concentration of 5 mg/mL, the administration amount is 0.4 mL/20 g body weight, which is corresponding to 100 mg/kg dosage.
The health ICR mice with 20-24 g of body weight fulfill the primary standard, and the male and female of them are in equal. The animals are fasted for 16 hours, and 2 g/kg of glucose-saline solution is injected intraperitoneally at 2 h after administration (glucose is injected at 1.5 h after administration of diamicron). The blood is regularly collected from the post-glomus venous plexus in mice with capillary at 0.5 h, 1 h, 2 h, 3 h, and 4 h after modeling, centrifuged to separate the blood serum, and the content of serum glucose is measured at each of the time-point by glucose-oxidase method.

SMILES | 0.5 h blood sugar [mg/dL] | 1 h blood sugar [mg/dL] | 2 h blood sugar [mg/dL] | 3 h blood sugar [mg/dL] | 4 h blood sugar [mg/dL]
Cc1csc(NC(=O)CNCc2cccs2)n1.Cl [Compound I-14, 4-methyl-2-{2-[(thienyl-2-methyl)amino]acetyl}amino thiazole hydrochloride] | 233.2 ± 18.1 | 176.2 ± 25.2 | 95.4 ± 46.9 | 65.3 ± 20.1 | 70.1 ± 15.3
O=C(CNCc1ccccc1Cl)Nc1nc(Br)cs1 [Compound I-2, 4-bromo-2-{2-[(2-chlorobenzyl)amino]acetyl}amino thiazole] | 199.2 ± 37.6 | 153.3 ± 62.7 | 93.3 ± 48.7 | 58.2 ± 29.0 | 60.0 ± 18.2
Cl.O=C(CNCc1ccccc1Cl)Nc1nc(Br)cs1 [Compound I-13, 4-bromo-2-{2-[(2-chlorobenzyl)amino]acetyl}amino thiazole hydrochloride] | 195.6 ± 78.1 | 166.5 ± 44.2 | 99.3 ± 20.9 | 68.1 ± 21.5 | 59.2 ± 18.3
Cc1ccc(S(=O)(=O)NC(=O)NN2CC3CCCC3C2)cc1 (stereo not drawn) [diamicron, reference compound] | 211.0 ± 91.3 | 140.3 ± 74.4 | 103.4 ± 31.7 | 77.2 ± 25.8 | 62.3 ± 22.3
Cl.O=C(CNCc1occc1[N+](=O)[O-])Nc1nc(Br)cs1 [Compound I-15, 4-bromo-2-{2-[(3-nitrylfuranyl-2-methyl)amino]acetyl}amino thiazole hydrochloride] | 193.6 ± 76.4 | 161.5 ± 42.6 | 91.3 ± 20.0 | 64.1 ± 20.2 | 55.1 ± 14.2
COC(=O)c1csc(NC(=O)CNCc2scc(C)c2Br)n1 [Compound I-8, 2-{2-[(3-bromo-4-methylthienyl-2-methyl)amino]acetyl}amino thiazole-4-methyl formate] | 162.5 ± 20.6 | 102.0 ± 30.5 | 98.7 ± 20.5 | 62.5 ± 15.3 | 50.6 ± 18.9
O=C(CNCc1sccc1Br)Nc1nc(Br)cs1 [Compound I-7, 4-bromo-2-{2-[(3-bromothienyl-2-methyl)amino]acetyl}amino thiazole] | 186.0 ± 67.8 | 130.2 ± 37.7 | 100.9 ± 29.6 | 83.3 ± 91.8 | 72.1 ± 29.7
Cc1csc(NC(=O)CNCc2cccs2)n1 [Compound I-6, 4-methyl-2-{2-[(thienyl-2-methyl)amino]acetyl}amino thiazole] | 240.1 ± 41.1 | 186.8 ± 45.9 | 113.6 ± 30.9 | 76.6 ± 48.4 | 88.0 ± 20.1
O=C(CNCc1ccccc1)Nc1nccs1 [Compound I-1, 2-{2-[(benzyl)amino]acetyl}amino thiazole] | 266.4 ± 56.9 | 182.3 ± 57.6 | 88.2 ± 17.6 | 60.0 ± 15.6 | 52.3 ± 28.1
